According to paper PMC9856672, “SGC-CAMKK2-1: A Chemical Probe for CAMKK2” (Cells, 2023):

Legend:
VPS34 = target: T1, VPS34 (Homo sapiens, UniProt Q8NEB9); assay: KINOMEscan at 1 μM, VPS34; assay type: binding; settings: 1000 nM, read-out: Percent Control
T1 construct: purchased Eurofins DiscoverX KINOMEscan
Description: (§1) Supplement cells-12-00287-s001.zip/File S2. KinomeScan data for the CAMKK2 probe and negative control.xlsx, sheet "SGC-CAMKK2-1N" | column: Percent Control

CSK = target: T2, CSK (Homo sapiens, UniProt P41240); assay: KINOMEscan at 1 μM, CSK; assay type: binding; settings: 1000 nM, read-out: Percent Control
T2 construct: purchased Eurofins DiscoverX KINOMEscan
Description: as §1

KIT(V559D) = target: T3, KIT(V559D) (Homo sapiens, UniProt P10721, V559D); assay: KINOMEscan at 1 μM, KIT(V559D); assay type: binding; settings: 1000 nM, read-out: Percent Control
T3 construct: purchased Eurofins DiscoverX KINOMEscan
Description: as §1

[1] = target: T4, ABL1(F317L)-phosphorylated (Homo sapiens, UniProt P00519, F317L); assay: KINOMEscan at 1 μM, ABL1(F317L)-phosphorylated; assay type: binding; settings: 1000 nM, read-out: Percent Control
T4 construct: purchased Eurofins DiscoverX KINOMEscan
Description: as §1

ARK5 = target: T5, ARK5 (Homo sapiens, UniProt O60285); assay: KINOMEscan at 1 μM, ARK5; assay type: binding; settings: 1000 nM, read-out: Percent Control
T5 construct: purchased Eurofins DiscoverX KINOMEscan
Description: as §1

PAK7 = target: T6, PAK7 (Homo sapiens, UniProt Q9P286); assay: KINOMEscan at 1 μM, PAK7; assay type: binding; settings: 1000 nM, read-out: Percent Control
T6 construct: purchased Eurofins DiscoverX KINOMEscan
Description: as §1

YES = target: T7, YES (Homo sapiens, UniProt P07947); assay: KINOMEscan at 1 μM, YES; assay type: binding; settings: 1000 nM, read-out: Percent Control
T7 construct: purchased Eurofins DiscoverX KINOMEscan
Description: as §1

[2] = target: T8, ABL1(F317I)-phosphorylated (Homo sapiens, UniProt P00519, F317I); assay: KINOMEscan at 1 μM, ABL1(F317I)-phosphorylated; assay type: binding; settings: 1000 nM, read-out: Percent Control
T8 construct: purchased Eurofins DiscoverX KINOMEscan
Description: as §1

DRAK2 = target: T9, DRAK2 (Homo sapiens, UniProt O94768); assay: KINOMEscan at 1 μM, DRAK2; assay type: binding; settings: 1000 nM, read-out: Percent Control
T9 construct: purchased Eurofins DiscoverX KINOMEscan
Description: as §1

DDR1 = target: T10, DDR1 (Homo sapiens, UniProt Q08345); assay: KINOMEscan at 1 μM, DDR1; assay type: binding; settings: 1000 nM, read-out: Percent Control
T10 construct: purchased Eurofins DiscoverX KINOMEscan
Description: as §1

RIOK2 = target: T11, RIOK2 (Homo sapiens, UniProt Q9BVS4); assay: KINOMEscan at 1 μM, RIOK2; assay type: binding; settings: 1000 nM, read-out: Percent Control
T11 construct: purchased Eurofins DiscoverX KINOMEscan
Description: as §1

IKK-epsilon = target: T12, IKK-epsilon (Homo sapiens, UniProt Q14164); assay: KINOMEscan at 1 μM, IKK-epsilon; assay type: binding; settings: 1000 nM, read-out: Percent Control
T12 construct: purchased Eurofins DiscoverX KINOMEscan
Description: as §1

ACVR1B = target: T13, ACVR1B (Homo sapiens, UniProt P36896); assay: KINOMEscan at 1 μM, ACVR1B; assay type: binding; settings: 1000 nM, read-out: Percent Control
T13 construct: purchased Eurofins DiscoverX KINOMEscan
Description: as §1

DMPK2 = target: T14, DMPK2 (Homo sapiens, UniProt Q6DT37); assay: KINOMEscan at 1 μM, DMPK2; assay type: binding; settings: 1000 nM, read-out: Percent Control
T14 construct: purchased Eurofins DiscoverX KINOMEscan
Description: as §1

GCN2(Kin.Dom.2,S808G) = target: T15, GCN2(Kin.Dom.2,S808G) (Homo sapiens, UniProt Q9P2K8, S808G); assay: KINOMEscan binding assay at 1 μM, GCN2(Kin.Dom.2,S808G); settings: Compound Concentration 1000 nM; read-out: Percent Control
T15 construct: GCN2(Kin.Dom.2,S808G); purchased Eurofins DiscoverX KINOMEscan
Description: as §1

HCK = target: T16, HCK (Homo sapiens, UniProt P08631); assay: KINOMEscan binding assay at 1 μM, HCK; settings: Compound Concentration 1000 nM; read-out: Percent Control
T16 construct: purchased Eurofins DiscoverX KINOMEscan
Description: as §1

HPK1 = target: T17, HPK1 (Homo sapiens, UniProt Q92918); assay: KINOMEscan binding assay at 1 μM, HPK1; settings: Compound Concentration 1000 nM; read-out: Percent Control
T17 construct: purchased Eurofins DiscoverX KINOMEscan
Description: as §1

MAPKAPK2 = target: T18, MAPKAPK2 (Homo sapiens, UniProt P49137); assay: KINOMEscan binding assay at 1 μM, MAPKAPK2; settings: Compound Concentration 1000 nM; read-out: Percent Control
T18 construct: purchased Eurofins DiscoverX KINOMEscan
Description: as §1

PAK3 = target: T19, PAK3 (Homo sapiens, UniProt O75914); assay: KINOMEscan binding assay at 1 μM, PAK3; settings: Compound Concentration 1000 nM; read-out: Percent Control
T19 construct: purchased Eurofins DiscoverX KINOMEscan
Description: as §1

PKAC-alpha = target: T20, PKAC-alpha (Homo sapiens, UniProt P17612); assay: KINOMEscan binding assay at 1 μM, PKAC-alpha; settings: Compound Concentration 1000 nM; read-out: Percent Control
T20 construct: purchased Eurofins DiscoverX KINOMEscan
Description: as §1

SYK = target: T21, SYK (Homo sapiens, UniProt P43405); assay: KINOMEscan binding assay at 1 μM, SYK; settings: Compound Concentration 1000 nM; read-out: Percent Control
T21 construct: purchased Eurofins DiscoverX KINOMEscan
Description: as §1

EPHB6 = target: T22, EPHB6 (Homo sapiens, UniProt O15197); assay: KINOMEscan 1 μM, EPHB6; assay type: binding; settings: 1000 nM; Entrez EPHB6; read-out: Percent Control
T22 construct: purchased Eurofins DiscoverX KINOMEscan
Description: (§2) Supplement cells-12-00287-s001.zip/File S2. KinomeScan data for the CAMKK2 probe and negative control.xlsx, sheet "SGC-CAMKK2-1" | column: Percent Control

LKB1 = target: T23, LKB1 (Homo sapiens, UniProt Q15831); assay: KINOMEscan 1 μM, LKB1; assay type: binding; settings: 1000 nM; Entrez STK11; read-out: Percent Control
T23 construct: purchased Eurofins DiscoverX KINOMEscan
Description: as §2

INSRR = target: T24, INSRR (Homo sapiens, UniProt P14616); assay: KINOMEscan 1 μM, INSRR; assay type: binding; settings: 1000 nM; Entrez INSRR; read-out: Percent Control
T24 construct: purchased Eurofins DiscoverX KINOMEscan
Description: as §2

ACVR2A = target: T25, ACVR2A (Homo sapiens, UniProt P27037); assay: KINOMEscan 1 μM, ACVR2A; assay type: binding; settings: 1000 nM; Entrez ACVR2A; read-out: Percent Control
T25 construct: purchased Eurofins DiscoverX KINOMEscan
Description: as §2

CHEK2 = target: T26, CHEK2 (Homo sapiens, UniProt O96017); assay: KINOMEscan 1 μM, CHEK2; assay type: binding; settings: 1000 nM; Entrez CHEK2; read-out: Percent Control
T26 construct: purchased Eurofins DiscoverX KINOMEscan
Description: as §2

ASK2 = target: T27, ASK2 (Homo sapiens, UniProt O95382); assay: KINOMEscan 1 μM, ASK2; assay type: binding; settings: 1000 nM; Entrez MAP3K6; read-out: Percent Control
T27 construct: purchased Eurofins DiscoverX KINOMEscan
Description: as §2

WNK3 = target: T28, WNK3 (Homo sapiens, UniProt Q9BYP7); assay: KINOMEscan 1 μM, WNK3; assay type: binding; settings: 1000 nM; Entrez WNK3; read-out: Percent Control
T28 construct: purchased Eurofins DiscoverX KINOMEscan
Description: as §2

MTOR = target: T29, MTOR (Homo sapiens, UniProt P42345); assay: KINOMEscan 1 μM, MTOR; assay type: binding; settings: 1000 nM; Entrez MTOR; read-out: Percent Control
T29 construct: purchased Eurofins DiscoverX KINOMEscan
Description: as §2

TNK2 = target: T30, TNK2 (Homo sapiens, UniProt Q07912); assay: KINOMEscan 1 μM, TNK2; assay type: binding; settings: 1000 nM; Entrez TNK2; read-out: Percent Control
T30 construct: purchased Eurofins DiscoverX KINOMEscan
Description: as §2

BMPR1A = target: T31, BMPR1A (Homo sapiens, UniProt P36894); assay: KINOMEscan 1 μM, BMPR1A; assay type: binding; settings: 1000 nM; Entrez BMPR1A; read-out: Percent Control
T31 construct: purchased Eurofins DiscoverX KINOMEscan
Description: as §2

BUB1 = target: T32, BUB1 (Homo sapiens, UniProt O43683); assay: KINOMEscan 1 μM, BUB1; assay type: binding; settings: 1000 nM; Entrez BUB1; read-out: Percent Control
T32 construct: purchased Eurofins DiscoverX KINOMEscan
Description: as §2

MEK2 = target: T33, MEK2 (Homo sapiens, UniProt P36507); assay: KINOMEscan 1 μM, MEK2; assay type: binding; settings: 1000 nM; Entrez MAP2K2; read-out: Percent Control
T33 construct: purchased Eurofins DiscoverX KINOMEscan
Description: as §2

PFCDPK1(P.falciparum) = target: T34, PFCDPK1(P.falciparum) (Plasmodium falciparum, UniProt P62344); assay: DiscoverX KINOMEscan binding assay at 1 μM, PFCDPK1(P.falciparum); settings: PFCDPK1(P.falciparum) (CDPK1); Compound Concentration 1000 nM; read-out: Percent Control
T34 construct: purchased Eurofins DiscoverX KINOMEscan
Description: as §2

T25 sequence (P27037 20-513): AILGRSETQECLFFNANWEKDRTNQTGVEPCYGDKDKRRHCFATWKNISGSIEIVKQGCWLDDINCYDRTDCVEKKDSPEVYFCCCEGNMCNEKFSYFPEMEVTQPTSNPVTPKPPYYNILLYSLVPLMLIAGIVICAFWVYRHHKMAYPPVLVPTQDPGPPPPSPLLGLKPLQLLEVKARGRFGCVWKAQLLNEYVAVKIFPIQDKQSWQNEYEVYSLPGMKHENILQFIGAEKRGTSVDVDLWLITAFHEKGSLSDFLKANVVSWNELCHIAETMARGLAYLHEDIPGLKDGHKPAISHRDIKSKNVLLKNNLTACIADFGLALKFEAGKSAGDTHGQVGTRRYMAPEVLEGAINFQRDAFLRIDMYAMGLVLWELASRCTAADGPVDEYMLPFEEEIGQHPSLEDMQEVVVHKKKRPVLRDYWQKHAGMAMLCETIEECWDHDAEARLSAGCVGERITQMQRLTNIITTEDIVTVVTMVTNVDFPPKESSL
T31 sequence (P36894 24-532): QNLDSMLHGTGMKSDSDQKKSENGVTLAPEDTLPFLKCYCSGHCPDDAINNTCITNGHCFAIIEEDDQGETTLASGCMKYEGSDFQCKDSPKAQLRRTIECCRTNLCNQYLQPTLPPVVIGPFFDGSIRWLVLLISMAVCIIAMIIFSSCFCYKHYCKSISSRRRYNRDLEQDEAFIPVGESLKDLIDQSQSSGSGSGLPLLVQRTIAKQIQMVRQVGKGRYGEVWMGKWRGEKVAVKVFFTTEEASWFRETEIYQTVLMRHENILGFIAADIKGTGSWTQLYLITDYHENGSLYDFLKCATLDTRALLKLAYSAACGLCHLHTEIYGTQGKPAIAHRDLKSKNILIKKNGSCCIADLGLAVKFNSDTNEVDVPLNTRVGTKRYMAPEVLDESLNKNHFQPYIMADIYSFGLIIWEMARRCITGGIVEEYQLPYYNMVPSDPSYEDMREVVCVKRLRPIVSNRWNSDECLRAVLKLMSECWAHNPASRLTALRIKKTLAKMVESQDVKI
T16 sequence (P08631 whole entry): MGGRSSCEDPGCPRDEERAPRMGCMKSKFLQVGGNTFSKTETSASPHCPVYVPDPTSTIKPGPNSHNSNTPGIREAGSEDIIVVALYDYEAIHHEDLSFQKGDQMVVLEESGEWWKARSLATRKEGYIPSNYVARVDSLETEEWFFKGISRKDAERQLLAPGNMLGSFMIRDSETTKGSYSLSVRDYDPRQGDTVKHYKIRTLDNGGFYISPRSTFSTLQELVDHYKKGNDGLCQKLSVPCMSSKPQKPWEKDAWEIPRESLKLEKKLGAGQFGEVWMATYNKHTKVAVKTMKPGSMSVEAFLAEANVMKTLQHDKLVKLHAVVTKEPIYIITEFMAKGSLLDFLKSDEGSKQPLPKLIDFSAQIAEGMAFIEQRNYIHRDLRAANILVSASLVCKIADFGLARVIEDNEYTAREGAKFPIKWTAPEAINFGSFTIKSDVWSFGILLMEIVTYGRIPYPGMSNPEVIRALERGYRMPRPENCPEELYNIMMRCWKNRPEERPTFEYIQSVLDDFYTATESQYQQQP
T19 sequence (O75914 whole entry): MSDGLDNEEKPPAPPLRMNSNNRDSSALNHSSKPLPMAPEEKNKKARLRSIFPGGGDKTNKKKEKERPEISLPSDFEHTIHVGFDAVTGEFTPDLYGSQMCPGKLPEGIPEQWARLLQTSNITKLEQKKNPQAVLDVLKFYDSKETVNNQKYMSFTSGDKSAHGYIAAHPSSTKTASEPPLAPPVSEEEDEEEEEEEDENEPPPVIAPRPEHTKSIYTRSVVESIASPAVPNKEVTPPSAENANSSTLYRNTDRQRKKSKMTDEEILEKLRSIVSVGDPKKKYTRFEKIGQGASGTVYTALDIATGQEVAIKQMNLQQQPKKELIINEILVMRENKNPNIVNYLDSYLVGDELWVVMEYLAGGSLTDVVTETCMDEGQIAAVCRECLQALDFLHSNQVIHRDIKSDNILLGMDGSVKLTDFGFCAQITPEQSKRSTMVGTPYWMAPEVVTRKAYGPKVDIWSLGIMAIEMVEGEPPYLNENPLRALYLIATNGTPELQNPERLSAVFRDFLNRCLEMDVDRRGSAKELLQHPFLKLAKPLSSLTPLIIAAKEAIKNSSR
T32 sequence (O43683 whole entry): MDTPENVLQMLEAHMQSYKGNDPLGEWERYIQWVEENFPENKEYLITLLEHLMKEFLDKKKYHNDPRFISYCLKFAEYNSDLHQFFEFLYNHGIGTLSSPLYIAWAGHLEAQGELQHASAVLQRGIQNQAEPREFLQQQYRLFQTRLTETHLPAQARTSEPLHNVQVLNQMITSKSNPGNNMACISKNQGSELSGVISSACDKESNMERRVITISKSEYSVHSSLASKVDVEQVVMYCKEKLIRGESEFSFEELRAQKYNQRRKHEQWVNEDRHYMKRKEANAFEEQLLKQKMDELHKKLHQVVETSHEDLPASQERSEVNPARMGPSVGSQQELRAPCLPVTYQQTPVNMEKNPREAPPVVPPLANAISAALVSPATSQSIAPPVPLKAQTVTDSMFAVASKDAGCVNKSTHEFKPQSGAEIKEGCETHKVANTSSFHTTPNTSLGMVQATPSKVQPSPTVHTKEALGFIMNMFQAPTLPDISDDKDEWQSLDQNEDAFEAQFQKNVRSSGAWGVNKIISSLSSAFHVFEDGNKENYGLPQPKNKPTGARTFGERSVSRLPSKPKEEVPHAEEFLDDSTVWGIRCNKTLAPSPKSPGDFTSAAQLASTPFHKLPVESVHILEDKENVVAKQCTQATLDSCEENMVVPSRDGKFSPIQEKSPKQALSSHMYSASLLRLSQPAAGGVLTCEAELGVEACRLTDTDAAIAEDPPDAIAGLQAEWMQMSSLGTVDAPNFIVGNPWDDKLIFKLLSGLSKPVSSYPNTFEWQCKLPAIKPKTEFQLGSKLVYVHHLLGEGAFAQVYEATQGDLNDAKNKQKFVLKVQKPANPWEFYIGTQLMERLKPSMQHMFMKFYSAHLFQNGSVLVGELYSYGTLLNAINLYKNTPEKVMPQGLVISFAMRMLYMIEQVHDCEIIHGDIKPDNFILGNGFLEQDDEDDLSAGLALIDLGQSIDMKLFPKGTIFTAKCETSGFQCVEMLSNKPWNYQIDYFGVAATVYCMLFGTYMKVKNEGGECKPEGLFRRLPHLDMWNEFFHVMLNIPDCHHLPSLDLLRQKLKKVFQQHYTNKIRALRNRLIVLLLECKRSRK
T9 sequence (O94768 whole entry): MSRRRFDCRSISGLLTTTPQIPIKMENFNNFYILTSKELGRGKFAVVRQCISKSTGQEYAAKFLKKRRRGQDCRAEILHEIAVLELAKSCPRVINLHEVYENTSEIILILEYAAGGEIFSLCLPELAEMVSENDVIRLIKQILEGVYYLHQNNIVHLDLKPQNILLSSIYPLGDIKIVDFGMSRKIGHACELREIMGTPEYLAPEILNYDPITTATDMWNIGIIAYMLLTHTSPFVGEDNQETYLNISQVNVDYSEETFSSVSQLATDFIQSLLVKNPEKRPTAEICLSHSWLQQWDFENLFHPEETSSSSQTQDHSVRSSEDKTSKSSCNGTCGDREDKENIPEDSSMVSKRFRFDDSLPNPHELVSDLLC
T15 sequence (Q9P2K8 590-1001 S808G limits assumed): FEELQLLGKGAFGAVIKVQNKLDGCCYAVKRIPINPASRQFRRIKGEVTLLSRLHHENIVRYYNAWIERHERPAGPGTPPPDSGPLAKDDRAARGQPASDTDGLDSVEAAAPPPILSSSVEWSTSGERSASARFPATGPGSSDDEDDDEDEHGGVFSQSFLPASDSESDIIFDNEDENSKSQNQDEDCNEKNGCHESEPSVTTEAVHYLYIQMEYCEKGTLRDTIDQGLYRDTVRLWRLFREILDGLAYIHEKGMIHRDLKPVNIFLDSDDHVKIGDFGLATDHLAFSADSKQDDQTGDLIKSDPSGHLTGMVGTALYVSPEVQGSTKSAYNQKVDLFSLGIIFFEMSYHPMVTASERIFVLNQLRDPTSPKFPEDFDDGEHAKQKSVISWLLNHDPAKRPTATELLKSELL
T17 sequence (Q92918 whole entry): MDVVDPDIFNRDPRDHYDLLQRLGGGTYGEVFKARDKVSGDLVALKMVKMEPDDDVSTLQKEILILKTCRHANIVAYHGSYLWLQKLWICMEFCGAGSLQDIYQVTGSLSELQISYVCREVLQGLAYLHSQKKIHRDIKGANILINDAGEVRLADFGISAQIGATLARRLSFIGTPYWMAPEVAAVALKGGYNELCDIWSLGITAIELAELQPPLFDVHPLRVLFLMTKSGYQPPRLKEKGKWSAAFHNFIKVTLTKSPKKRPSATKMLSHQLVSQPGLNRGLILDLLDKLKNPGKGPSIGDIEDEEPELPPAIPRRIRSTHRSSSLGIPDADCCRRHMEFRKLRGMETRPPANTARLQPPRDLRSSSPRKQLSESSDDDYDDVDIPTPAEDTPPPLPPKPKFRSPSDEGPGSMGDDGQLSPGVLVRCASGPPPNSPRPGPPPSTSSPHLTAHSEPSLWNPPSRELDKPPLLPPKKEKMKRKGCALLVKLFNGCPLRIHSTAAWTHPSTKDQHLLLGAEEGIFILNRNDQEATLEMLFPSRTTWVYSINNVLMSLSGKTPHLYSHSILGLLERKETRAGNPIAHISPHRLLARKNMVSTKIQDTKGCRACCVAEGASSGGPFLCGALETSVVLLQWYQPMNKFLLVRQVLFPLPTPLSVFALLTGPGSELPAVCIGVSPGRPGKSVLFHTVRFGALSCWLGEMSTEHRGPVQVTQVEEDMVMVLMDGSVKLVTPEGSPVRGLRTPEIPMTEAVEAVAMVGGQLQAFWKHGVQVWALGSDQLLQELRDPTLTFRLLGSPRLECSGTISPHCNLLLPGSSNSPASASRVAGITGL

Q: What does the source list for `O=C(O)c1ccc(-c2coc3ncc(-c4ccccc4)cc23)cc1Cl` [SGC-CAMKK2-1N (UNC-YL-83)]?
A: remaining binding at 1 µM (VPS34): 44%; remaining binding at 1 µM (CSK): 60%; remaining binding at 1 µM (KIT(V559D)): 70%; remaining binding at 1 µM [1]: 79%; remaining binding at 1 µM (ARK5): 84%; remaining binding at 1 µM (PAK7): 84%; remaining binding at 1 µM (YES): 87%; remaining binding at 1 µM [2]: 90%; remaining binding at 1 µM (DRAK2): 90%; remaining binding at 1 µM (DDR1): 93%; remaining binding at 1 µM (RIOK2): 93%; remaining binding at 1 µM (IKK-epsilon): 98%; remaining binding at 1 µM (ACVR1B): 100%; remaining binding at 1 µM (DMPK2): 100%; remaining binding at 1 µM (GCN2(Kin.Dom.2,S808G)): 100%; remaining binding at 1 µM (HCK): 100%; remaining binding at 1 µM (HPK1): 100%; remaining binding at 1 µM (MAPKAPK2): 100%; remaining binding at 1 µM (PAK3): 100%; remaining binding at 1 µM (PKAC-alpha): 100%; remaining binding at 1 µM (SYK): 100%

Q: `Cc1cccc(-c2cnc3occ(-c4ccc(C(=O)O)c(C5CCCC5)c4)c3c2)c1` [SGC-CAMKK2-1 (YL-36)] was tested. Which remaining binding at 1 µM (EPHB6) did it give?
A: The remaining binding at 1 µM was 43%.

Q: What about the remaining binding at 1 µM (LKB1) of the same compound?
A: The remaining binding at 1 µM was 78%.

Q: And the remaining binding at 1 µM (INSRR)?
A: The remaining binding at 1 µM was 88%.

Q: And the remaining binding at 1 µM (ACVR2A)?
A: The remaining binding at 1 µM was 92%.

Q: What about the remaining binding at 1 µM (CHEK2) of the same compound?
A: Its remaining binding at 1 µM is 92%.

Q: And the remaining binding at 1 µM (ASK2)?
A: Its remaining binding at 1 µM is 96%.

Q: What about the remaining binding at 1 µM (WNK3) of the same compound?
A: Its remaining binding at 1 µM is 97%.

Q: What about the remaining binding at 1 µM (MTOR) of the same compound?
A: The remaining binding at 1 µM was 98%.

Q: And the remaining binding at 1 µM (TNK2)?
A: Its remaining binding at 1 µM is 99%.

Q: What about the remaining binding at 1 µM (BMPR1A) of the same compound?
A: Its remaining binding at 1 µM is 100%.

Q: What about the remaining binding at 1 µM (BUB1) of the same compound?
A: The remaining binding at 1 µM was 100%.

Q: What about the remaining binding at 1 µM (MEK2) of the same compound?
A: The remaining binding at 1 µM was 100%.

Q: And the remaining binding at 1 µM (PFCDPK1(P.falciparum))?
A: Its remaining binding at 1 µM is 100%.
